Biological target: recombinant human MGAT2 (Homo sapiens (Human), UniProt Q3SYC2)
Assay: Measurement of human MGAT2 inhibitory activity
Format: biochemical
Details: read-out: IC50 (concentration exhibiting 50% enzyme inhibition), Table 53
In short: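 RapidFire ESI-MS read-out of the diolein/diolein-d5 peak ratio gave % inhibition, with no-enzyme and full-enzyme wells as 100% and 0%. Reactions ran 1 h at room temperature at pH 7.4 (phosphate, 2 mmol/L DTT), using Flag-tagged human MGAT2 membranes from Sf9 cells and a substrate solution of 30 μmol/L 2-oleoylglycerol and 10 μmol/L oleoyl-CoA.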

Sequence of recombinant human MGAT2 (Q3SYC2 whole entry): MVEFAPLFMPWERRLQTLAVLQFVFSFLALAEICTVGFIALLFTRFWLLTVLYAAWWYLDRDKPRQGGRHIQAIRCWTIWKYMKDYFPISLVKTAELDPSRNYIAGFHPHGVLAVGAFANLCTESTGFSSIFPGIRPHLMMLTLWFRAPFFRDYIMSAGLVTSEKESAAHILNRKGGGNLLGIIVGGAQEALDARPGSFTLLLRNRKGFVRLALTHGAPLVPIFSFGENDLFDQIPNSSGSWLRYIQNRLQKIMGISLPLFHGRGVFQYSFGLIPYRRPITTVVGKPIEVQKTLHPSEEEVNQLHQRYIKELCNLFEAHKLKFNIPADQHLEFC

| SMILES | IC50 [nM] |
| --- | --- |
| COCCS(=O)(=O)NC(=O)c1c2c(nn1-c1ccc(C)c(F)c1)C[C@]1(CCc3cc(OCC(F)(F)F)ccc31)NC2=O [II-247] | 48.4 |
| Cc1ccc(-n2nc3c(c2NC(=O)CS(C)(=O)=O)C(=O)N[C@@]2(CCOc4cc(OCC(F)(F)F)ccc42)C3)cc1F [II-248] | 1.8 |
| Cc1ccc(-n2nc3c(c2C(=O)NCC2(CO)CC2)C(=O)N[C@@]2(CCOc4cc(OCC(F)(F)F)ccc42)C3)nc1 [II-249] | 13.4 |
| CS(=O)(=O)CC(=O)Nc1c2c(nn1-c1ccc(F)c(F)c1)C[C@]1(CCOc3cc(Cl)ccc31)NC2=O [II-250] | 3.91 |
| Cc1cc(-n2nc3c(c2C(=O)NCC#N)C(=O)N[C@@]2(CCc4cc(OCC(F)(F)F)ccc42)C3)no1 [II-251] | 10.1 |
| Cc1cc(-n2nc3c(c2C(=O)NCC(F)(F)F)C(=O)N[C@@]2(CCc4cc(OCC(F)(F)F)ccc42)C3)no1 [II-252] | 22.6 |
| Cc1cc(-n2nc3c(c2C(=O)NCC(N)=O)C(=O)N[C@@]2(CCc4cc(OCC(F)(F)F)ccc42)C3)no1 [II-253] | 4.28 |
| Cc1cc(-n2nc3c(c2C(=O)NCCS(N)(=O)=O)C(=O)N[C@@]2(CCc4cc(OCC(F)(F)F)ccc42)C3)no1 [II-254] | 45.7 |
| CC(F)(F)COc1ccc2c(c1)CC[C@@]21Cc2nn(CCCOC(F)(F)F)c(NC(=O)CS(C)(=O)=O)c2C(=O)N1 [II-255] | 2.74 |
| CS(=O)(=O)CC(=O)Nc1c2c(nn1-c1cc(C(F)(F)F)on1)C[C@]1(CCOc3cc(OCC(F)(F)F)ccc31)NC2=O [II-256] | 5.26 |
| CC(C)(C)c1cc(-n2nc3c(c2NC(=O)CS(C)(=O)=O)C(=O)N[C@@]2(CCOc4cc(OCC(F)(F)F)ccc42)C3)no1 [II-257] | 0.409 |
| CS(=O)(=O)CC(=O)Nc1c2c(nn1-c1ccc(C(F)F)nn1)C[C@]1(CCc3cc(OCCCC(F)(F)F)ccc31)NC2=O [II-258] | 0.285 |
| CS(=O)(=O)CC(=O)Nc1c2c(nn1-c1ccc(C3CC3)nn1)C[C@]1(CCc3cc(OCCCC(F)(F)F)ccc31)NC2=O [II-259] | 0.439 |
| CS(=O)(=O)CC(=O)Nc1c2c(nn1CCC1CC1)C[C@]1(CCc3c1ccc(N1CC(F)(F)C1)c3F)NC2=O [II-260] | 14 |
| CS(=O)(=O)CC(=O)Nc1c2c(nn1CCCOC(F)(F)F)C[C@@]1(CCc3cc(OCC(F)(F)C(F)(F)F)ccc31)NC2=O [II-261] | 1 |
| O=C1N[C@@]2(CCc3cc(OCC(F)(F)F)ccc32)Cc2nn(CCCOC(F)F)c(C(=O)NS(=O)(=O)C3CC3)c21 [II-262] | 8.83 |
| Cc1ccc(-n2nc3c(c2NC(=O)CC#N)C(=O)N[C@@]2(CCOc4cc(OCC(F)(F)F)ccc42)C3)nc1 [II-263] | 40 |
| NS(=O)(=O)CCNC(=O)c1c2c(nn1CCCOC(F)F)C[C@]1(CCc3cc(OCC(F)(F)F)ccc31)NC2=O [II-264] | 16.1 |
| O=C1N[C@@]2(CCc3cc(OCC(F)(F)F)ccc32)Cc2nn(CCCOC(F)F)c(C(=O)NCC3(O)CC3)c21 [II-265] | 54.4 |
| Cc1cc(-n2nc3c(c2NC(=O)CS(C)(=O)=O)C(=O)N[C@@]2(CCOc4cc(Cl)ccc42)C3)no1 [II-266] | 1.81 |
| Cc1cc(-n2nc3c(c2NC(=O)CS(C)(=O)=O)C(=O)N[C@@]2(CCOc4cc(CCC(F)(F)F)ccc42)C3)no1 [II-267] | 1 |
| Cc1cc(-n2nc3c(c2NC(=O)CS(C)(=O)=O)C(=O)N[C@@]2(CCc4cc(OCCCC(F)(F)F)ccc42)C3)nn1C [II-268] | 1.24 |
| Cc1ccc(-n2nc3c(c2NC(=O)CC(N)=O)C(=O)N[C@@]2(CCOc4cc(OCC(F)(F)F)ccc42)C3)nc1 [II-269] | 11.7 |
| CNS(=O)(=O)CC(=O)Nc1c2c(nn1-c1ccc(C)cn1)C[C@]1(CCOc3cc(OCC(F)(F)F)ccc31)NC2=O [II-271] | 1.34 |

| SMILES | IC50 [nM] |
| --- | --- |
| Cc1ccc(-n2nc3c(c2NC(=O)C2(S(C)(=O)=O)CC2)C(=O)N[C@@]2(CCOc4cc(OCC(F)(F)F)ccc42)C3)nc1 [II-272] | 210 |
| N#Cc1ccc(-n2nc3c(c2C(=O)NS(=O)(=O)C2CC2)C(=O)N[C@]2(CCc4cc(OCC(F)(F)F)ccc42)C3)nc1 [II-273] | 14 |
| Cc1ccc(-n2nc3c(c2C(=O)NS(=O)(=O)C2CC2)C(=O)N[C@@](c2ccc(OCC(F)(F)F)cc2F)(C(F)(F)F)C3)nc1 [II-274] | 6.67 |
| CS(=O)(=O)CC(=O)Nc1c2c(nn1CCCOC(F)(F)F)C[C@@]1(CCc3cc(OCCCC(F)(F)F)ccc31)NC2=O [II-277] | 1 |
| Cc1cc(-n2nc3c(c2NC(=O)CS(C)(=O)=O)C(=O)N[C@@]2(CCc4cc(C(F)(F)F)ccc42)C3)nn1C [II-278] | 5.92 |
| CS(=O)(=O)CC(=O)Nc1c2c(nn1CCCOC(F)(F)F)C[C@@]1(CCOc3cc(C4CC4)ccc31)NC2=O [II-279] | 1.12 |
| CS(=O)(=O)CC(=O)Nc1c2c(nn1CCCOC(F)(F)F)C[C@@]1(CCOc3cc(CCC(F)(F)F)ccc31)NC2=O [II-280] | < 1 |
| Cc1cc(-n2nc3c(c2NC(=O)CS(C)(=O)=O)C(=O)N[C@@]2(CCc4cc(OCCCC(F)(F)F)ccc42)C3)no1 [II-282] | < 1 |
| CS(=O)(=O)CC(=O)Nc1c2c(nn1CCCOC(F)(F)F)C[C@]1(CCc3cc(CCC(F)(F)F)ccc31)NC2=O [II-283] | < 1 |
| CS(=O)(=O)CC(=O)Nc1c2c(nn1CCCOC(F)(F)F)C[C@@]1(CCc3cc(CCC(F)(F)F)ccc31)NC2=O [II-284] | < 1 |
| CS(=O)(=O)CC(=O)Nc1c2c(nn1CCCOC(F)F)C[C@]1(CCc3cc(CCC(F)(F)F)ccc31)NC2=O [II-285] | 1.04 |
| CS(=O)(=O)CC(=O)Nc1c2c(nn1CCCOC(F)F)C[C@@]1(CCc3cc(CCC(F)(F)F)ccc31)NC2=O [II-286] | 1.15 |
| CS(=O)(=O)CC(=O)Nc1c2c(nn1-c1ccc(C(F)F)cc1)C[C@]1(CCc3cc(N4CC(F)(F)C4)ccc31)NC2=O [II-287] | 5.26 |
| CC(F)(F)COc1ccc2c(c1)CC[C@]21Cc2nn(-c3ccc(C(F)F)cc3)c(NC(=O)CS(C)(=O)=O)c2C(=O)N1 [II-288] | 3.31 |
| CCS(=O)(=O)CC(=O)Nc1c2c(nn1CCCOC(F)(F)F)C[C@@]1(CCOc3cc(OCC(F)(F)F)ccc31)NC2=O [II-289] | 1.06 |
| CS(=O)(=O)CC(=O)Nc1c2c(nn1CCCOC(F)F)C[C@]1(CCc3cc(OCC4CC(F)(F)C4)ccc31)NC2=O [II-290] | < 1 |
| CS(=O)(=O)CC(=O)Nc1c2c(nn1CCCOC(F)F)C[C@@]1(CCc3cc(OCC4CC(F)(F)C4)ccc31)NC2=O [II-291] | < 1 |
| O=C1N[C@]2(CCOc3cc(OCC(F)(F)F)ccc32)Cc2nn(CCCOC(F)(F)F)c(NC(=O)C3CS(=O)(=O)C3)c21 [II-293] | 2.76 |
| CS(=O)(=O)CC(=O)Nc1c2c(nn1-c1ccc(C(F)(F)F)cn1)C[C@]1(CCOc3cc(OCC(F)(F)F)ccc31)NC2=O [II-294] | < 1 |
| CS(=O)(=O)CC(=O)Nc1c2c(nn1-c1ccc(C3CC3)cn1)C[C@]1(CCOc3cc(OCC(F)(F)F)ccc31)NC2=O [II-296] | < 1 |
| CS(=O)(=O)CC(=O)Nc1c2c(nn1-c1ccc(C(F)F)cn1)C[C@]1(CCc3cc(OCC(F)(F)F)ccc31)NC2=O [II-297] | < 1 |
| CS(=O)(=O)CC(=O)Nc1c2c(nn1-c1ccc(C(F)F)cc1)C[C@]1(CCOc3cc(OCC(F)(F)F)ccc31)NC2=O [II-298] | < 1 |
| Cc1cc(-n2nc3c(c2NC(=O)CS(C)(=O)=O)C(=O)N[C@@]2(CCc4cc(CCC(F)(F)F)ccc42)C3)nn1C [II-299] | 1.98 |

Reference: patent publication US11198695B2, “Fused ring derivative having MGAT-2 inhibitory activity” (Shionogi & Co., Ltd., priority 2017, dated 2021)
